Measurements: ChEMBL document CHEMBL3797079, “Synergistic reduction of HIV-1 infectivity by 5-azacytidine and inhibitors of ribonucleotide reductase” (Bioorg Med Chem, 2016)
The source made the active and inactive calls.

Columns and labels:
[1] = tested on: Human immunodeficiency virus 1; experiment: Potentiation of 5-Aza-C-induced antiviral activity against VSV-G pseudotyped HIV-1 NL4-3 infected in human U373-MAGI cells assessed as decrease in 5-Aza-C EC50 at 2.5 nM preincubated for 2 hrs followed by 5-Aza-C addition for 2 hrs and subsequent viral infection measured at 72 hrs post infection by flow cytometric analysis relative to control; format: functional
U373-MAGI [2] = experiment: Effect on dRGU-TP level in human U373-MAGI cells at 2.5 nM preincubated for 2 hrs followed by 5-aza-dC addition measured after 4 hrs by LC-MS/MS analysis; format: functional, cell-based
U373-MAGI [3] = experiment: Effect on dRGU-TP level in human U373-MAGI cells at 25 nM preincubated for 2 hrs followed by 5-aza-dC addition measured after 4 hrs by LC-MS/MS analysis; format: functional, cell-based
U373-MAGI [4] = experiment: Reduction in dTTP level in human U373-MAGI cells at 25 nM after 6 hrs by LC-MS/MS analysis; format: functional, cell-based
U373-MAGI [5] = experiment: Reduction in dCTP level in human U373-MAGI cells at 25 nM preincubated for 2 hrs followed by 5-aza-C addition measured after 4 hrs by LC-MS/MS analysis relative to 5-aza-C; format: functional, cell-based
[6] = tested on: Human immunodeficiency virus 1; experiment: Antiviral activity against VSV-G pseudotyped HIV-1 NL4-3 infected in human U373-MAGI cells assessed as reduction in viral infectivity at 2.5 nM incubated for 4 hrs prior to viral infection measured at 72 hrs post infection by flow cytometric analysis; format: functional, organism-based
U373-MAGI [7] = experiment: Reduction in dGTP level in human U373-MAGI cells at 25 nM after 6 hrs by LC-MS/MS analysis; format: functional, cell-based
U373-MAGI [8] = experiment: Reduction in 5-aza-dCTP level in human U373-MAGI cells at 2.5 nM preincubated for 2 hrs followed by 5-aza-C addition measured after 4 hrs by LC-MS/MS analysis; format: functional, cell-based
U373-MAGI [9] = experiment: Reduction in dGTP level in human U373-MAGI cells at 2.5 nM after 6 hrs by LC-MS/MS analysis; format: functional, cell-based
U373-MAGI [10] = experiment: Reduction in dCTP level in human U373-MAGI cells at 2.5 nM preincubated for 2 hrs followed by 5-aza-C addition measured after 4 hrs by LC-MS/MS analysis; format: functional, cell-based
U373-MAGI [11] = experiment: Increase in 5-aza-dCTP/dCTP ratio in human U373-MAGI cells at 2.5 nM preincubated for 2 hrs followed by 5-aza-C addition measured after 4 hrs by LC-MS/MS analysis relative to 5-aza-C; format: functional, cell-based
U373-MAGI [12] = experiment: Reduction in dRGU-TP level in human U373-MAGI cells at 25 nM preincubated for 2 hrs followed by 5-aza-C addition measured after 4 hrs by LC-MS/MS analysis; format: functional, cell-based
U373-MAGI [13] = experiment: Increase in 5-aza-dCTP/dCTP ratio in human U373-MAGI cells at 2.5 nM preincubated for 2 hrs followed by 5-aza-dC addition measured after 4 hrs by LC-MS/MS analysis relative to 5-aza-dC; format: functional, cell-based
U373-MAGI [14] = experiment: Increase in 5-aza-dCTP/dCTP ratio in human U373-MAGI cells at 25 nM preincubated for 2 hrs followed by 5-aza-C addition measured after 4 hrs by LC-MS/MS analysis relative to 5-aza-C; format: functional, cell-based
U373-MAGI [15] = experiment: Effect on 5-aza-dCTP level in human U373-MAGI cells at 2.5 nM preincubated for 2 hrs followed by 5-aza-dC addition measured after 4 hrs by LC-MS/MS analysis; format: functional, cell-based
U373-MAGI [16] = experiment: Reduction in dRGU-TP level in human U373-MAGI cells at 2.5 nM preincubated for 2 hrs followed by 5-aza-C addition measured after 4 hrs by LC-MS/MS analysis; format: functional, cell-based
U373-MAGI [17] = experiment: Reduction in dTTP level in human U373-MAGI cells at 2.5 nM after 6 hrs by LC-MS/MS analysis; format: functional, cell-based
U373-MAGI [18] = experiment: Increase in 5-aza-dCTP/dCTP ratio in human U373-MAGI cells at 25 nM preincubated for 2 hrs followed by 5-aza-dC addition measured after 4 hrs by LC-MS/MS analysis relative to 5-aza-dC; format: functional, cell-based
U373-MAGI [19] = experiment: Effect on 5-aza-dCTP level in human U373-MAGI cells at 25 nM preincubated for 2 hrs followed by 5-aza-dC addition measured after 4 hrs by LC-MS/MS analysis; format: functional, cell-based
U373-MAGI [20] = experiment: Reduction in dCTP level in human U373-MAGI cells at 2.5 nM after 6 hrs by LC-MS/MS analysis; format: functional, cell-based
[21] = Reduction in dATP level in human U373-MAGI cells at 2.5 nM after 6 hrs by LC-MS/MS analysis; format: functional; parameters: scale not given: the % may be the effect or the level left
U373-MAGI [22] = experiment: Reduction in dCTP level in human U373-MAGI cells at 25 nM after 6 hrs by LC-MS/MS analysis; format: functional, cell-based
U373-MAGI [23] = experiment: Reduction in dCTP level in human U373-MAGI cells at 25 nM preincubated for 2 hrs followed by 5-aza-dC addition measured after 4 hrs by LC-MS/MS analysis relative to 5-aza-dC; format: functional, cell-based
U373-MAGI [24] = experiment: Reduction in 5-aza-dCTP level in human U373-MAGI cells at 25 nM preincubated for 2 hrs followed by 5-aza-C addition measured after 4 hrs by LC-MS/MS analysis; format: functional, cell-based
[25] = Cytotoxicity against human U373-MAGI cells at 2.5 nM measured at 72 hrs by Celltiter-Glo luminescent cell viability assay; format: cell-based; details: 0.0025 µM
U373-MAGI [26] = experiment: Reduction in dATP level in human U373-MAGI cells at 25 nM after 6 hrs by LC-MS/MS analysis; format: functional, cell-based
U373-MAGI [27] = experiment: Reduction in dCTP level in human U373-MAGI cells at 2.5 nM preincubated for 2 hrs followed by 5-aza-dC addition measured after 4 hrs by LC-MS/MS analysis relative to 5-aza-dC; format: functional, cell-based

Nc1ccn([C@@H]2O[C@H](CO)[C@@H](O)C2(F)F)c(=O)n1 [GEMCITABINE]
Non-toxic: Activity [25]
inactive: Activity (U373-MAGI [2]) | Activity (U373-MAGI [3]) | Activity (U373-MAGI [4]) | Activity (U373-MAGI [8]) | Activity (U373-MAGI [9]) | Activity (U373-MAGI [11]) | Activity (U373-MAGI [14]) | Activity (U373-MAGI [15]) | Activity (U373-MAGI [16]) | Activity (U373-MAGI [17]) | Activity (U373-MAGI [19]) | Activity (U373-MAGI [20])
active: Activity (U373-MAGI [5]) | Activity [6] | Activity (U373-MAGI [7]) | Activity (U373-MAGI [10]) | Activity (U373-MAGI [12]) | Activity (U373-MAGI [13]) | Activity (U373-MAGI [18]) | Activity (U373-MAGI [22]) | Activity (U373-MAGI [23]) | Activity (U373-MAGI [24]) | Activity (U373-MAGI [26]) | Activity (U373-MAGI [27])
30%: Activity [21]
2.5: fold change (FC) [1]
